From PubChem BioAssay AID1259407 (Chemical Carcinogenesis Research Information System (CCRIS), 2018)
Calls of active or inactive are those of the source. How the calls were made is not given here.

Test system: CCRIS mutagenicity, Ames/micronucleus/aberration tests
Assay: CCRIS mutagenicity studies
[1] = Test System: AMES SALMONELLA TYPHIMURIUM, Strain/Indicator: TA98, Metabolic Activation: NONE, Method: STANDARD PLATE
[2] = Test System: AMES SALMONELLA TYPHIMURIUM, Strain/Indicator: TA100, Metabolic Activation: NONE, Method: STANDARD PLATE
[3] = Test System: AMES SALMONELLA TYPHIMURIUM, Strain/Indicator: TA98, Metabolic Activation: RAT, LIVER, S-9, AROCLOR 1254, Method: STANDARD PLATE
[4] = Test System: AMES SALMONELLA TYPHIMURIUM, Strain/Indicator: TA100, Metabolic Activation: RAT, LIVER, S-9, AROCLOR 1254, Method: STANDARD PLATE
[5] = Test System: AMES SALMONELLA TYPHIMURIUM, Strain/Indicator: TA100, Metabolic Activation: NONE, Method: PREINCUBATION

CCOP(=S)(OCC(C)C)SCCl (stereo not drawn)
mutagenic call (Test System: AMES SALMONELLA TYPHIMURIUM, Strain/Indicator: TA98, Metabolic Activation: NONE): inactive; negative
mutagenic call [1]: inactive; negative
mutagenic call (Test System: AMES SALMONELLA TYPHIMURIUM, Strain/Indicator: TA98, Metabolic Activation: RAT, LIVER, S-9, SODIUM PHENOBARBITAL, Method: STANDARD PLATE): inactive; negative
mutagenic call (Test System: AMES SALMONELLA TYPHIMURIUM, Strain/Indicator: TA98, Metabolic Activation: S-9): inactive; negative
mutagenic call (Test System: AMES SALMONELLA TYPHIMURIUM, Strain/Indicator: TA100, Metabolic Activation: NONE): inactive; negative
mutagenic call [2]: inactive; negative
mutagenic call (Test System: AMES SALMONELLA TYPHIMURIUM, Strain/Indicator: TA100, Metabolic Activation: RAT, LIVER, S-9, SODIUM PHENOBARBITAL, Method: STANDARD PLATE): inactive; negative
mutagenic call (Test System: AMES SALMONELLA TYPHIMURIUM, Strain/Indicator: TA100, Metabolic Activation: S-9): inactive; negative
mutagenic call (Test System: E. COLI, Strain/Indicator: WP2, Metabolic Activation: NONE): inactive; negative
mutagenic call (Test System: E. COLI, Strain/Indicator: WP2, Metabolic Activation: RAT, LIVER, S-9, SODIUM PHENOBARBITAL, Method: STANDARD PLATE): inactive; negative
mutagenic call (Test System: E. COLI, Strain/Indicator: WP2, Metabolic Activation: S-9): inactive; negative
mutagenic call (Test System: E. COLI, Strain/Indicator: WP2 UVRA, Metabolic Activation: NONE): inactive; negative
mutagenic call (Test System: E. COLI, Strain/Indicator: WP2 UVRA, Metabolic Activation: RAT, LIVER, S-9, SODIUM PHENOBARBITAL, Method: STANDARD PLATE): inactive; negative
mutagenic call (Test System: E. COLI, Strain/Indicator: WP2 UVRA, Metabolic Activation: S-9): inactive; negative

CCOP(=O)(OCC)O/C(=C/Br)c1ccc(Cl)cc1Cl
mutagenic call [1]: inactive; negative
mutagenic call [3]: inactive; negative
mutagenic call [2]: inactive; negative
mutagenic call [4]: inactive; negative
mutagenic call (Test System: AMES SALMONELLA TYPHIMURIUM, Strain/Indicator: TA1535, Metabolic Activation: NONE, Method: STANDARD PLATE): inactive; negative
mutagenic call (Test System: AMES SALMONELLA TYPHIMURIUM, Strain/Indicator: TA1535, Metabolic Activation: RAT, LIVER, S-9, AROCLOR 1254, Method: STANDARD PLATE): inactive; negative
mutagenic call (Test System: AMES SALMONELLA TYPHIMURIUM, Strain/Indicator: TA1537, Metabolic Activation: NONE, Method: STANDARD PLATE): inactive; negative
mutagenic call (Test System: AMES SALMONELLA TYPHIMURIUM, Strain/Indicator: TA1537, Metabolic Activation: RAT, LIVER, S-9, AROCLOR 1254, Method: STANDARD PLATE): inactive; negative
mutagenic call (Test System: AMES SALMONELLA TYPHIMURIUM, Strain/Indicator: TA1538, Metabolic Activation: NONE, Method: STANDARD PLATE): inactive; negative
mutagenic call (Test System: AMES SALMONELLA TYPHIMURIUM, Strain/Indicator: TA1538, Metabolic Activation: RAT, LIVER, S-9, AROCLOR 1254, Method: STANDARD PLATE): inactive; negative

C[C@@H](O)[C@H](N)C(=O)O
mutagenic call (Test System: AMES SALMONELLA TYPHIMURIUM, Strain/Indicator: TA98, Metabolic Activation: RAT LIVER S-9, CHLOROPHENE, Method: STANDARD PLATE (COMPOUND HEATED AT 250 DEGREES CELSIUS FOR 20 MIN)): active; positive

[N-]=[N+]=O
mutagenic call (Test System: CHINESE HAMSTER V-79, Strain/Indicator: V-79/8-AZAGUANINE, Metabolic Activation: NONE, Method: STANDARD PLATE): active; positive

C1CCNC1
mutagenic call (Test System: AMES SALMONELLA TYPHIMURIUM, Strain/Indicator: TA98, Metabolic Activation: NONE, Method: PREINCUBATION): inactive; negative
mutagenic call (Test System: AMES SALMONELLA TYPHIMURIUM, Strain/Indicator: TA98, Metabolic Activation: RAT, LIVER, S-9, PCB, Method: PREINCUBATION): inactive; negative
mutagenic call [5]: inactive; negative
mutagenic call (Test System: AMES SALMONELLA TYPHIMURIUM, Strain/Indicator: TA100, Metabolic Activation: RAT, LIVER, S-9, PCB, Method: PREINCUBATION): inactive; negative

CC(C)(C)OCC1CO1 (stereo not drawn)
mutagenic call (Test System: AMES SALMONELLA TYPHIMURIUM, Strain/Indicator: TA100, Metabolic Activation: HAMSTER, LIVER, S-9, AROCLOR 1254 (30%), Method: PREINCUBATION): active; positive
mutagenic call [5]: active; positive
mutagenic call (Test System: AMES SALMONELLA TYPHIMURIUM, Strain/Indicator: TA100, Metabolic Activation: RAT, LIVER, S-9, AROCLOR 1254 (30%), Method: PREINCUBATION): active; positive
mutagenic call (Test System: AMES SALMONELLA TYPHIMURIUM, Strain/Indicator: TA1535, Metabolic Activation: HAMSTER, LIVER, S-9, AROCLOR 1254 (30%), Method: PREINCUBATION): active; positive
mutagenic call (Test System: AMES SALMONELLA TYPHIMURIUM, Strain/Indicator: TA1535, Metabolic Activation: NONE, Method: PREINCUBATION): active; positive
mutagenic call (Test System: AMES SALMONELLA TYPHIMURIUM, Strain/Indicator: TA1535, Metabolic Activation: RAT, LIVER, S-9, AROCLOR 1254 (30%), Method: PREINCUBATION): active; positive

c1ccc2c(c1)ccc1c3ccccc3ccc21
mutagenic call (Test System: AMES SALMONELLA TYPHIMURIUM, Strain/Indicator: TA97, Metabolic Activation: NONE, Method: STANDARD PLATE): inactive; negative
mutagenic call (Test System: AMES SALMONELLA TYPHIMURIUM, Strain/Indicator: TA97, Metabolic Activation: RAT, LIVER, S-9, PCB, Method: STANDARD PLATE): active; positive
mutagenic call [1]: inactive; negative
mutagenic call [3]: active; positive
mutagenic call (Test System: AMES SALMONELLA TYPHIMURIUM, Strain/Indicator: TA98, Metabolic Activation: RAT, LIVER, S-9, PCB, Method: STANDARD PLATE): active; positive
mutagenic call [2]: inactive; negative
mutagenic call (Test System: AMES SALMONELLA TYPHIMURIUM, Strain/Indicator: TA100, Metabolic Activation: POOLED HUMAN LIVER MICROSOMES, Method: PREINCUBATION): inactive; negative
mutagenic call (Test System: AMES SALMONELLA TYPHIMURIUM, Strain/Indicator: TA100, Metabolic Activation: RAT, LIVER, MICROSOMES, AROCLOR 1254, Method: STANDARD PLATE): active; positive
mutagenic call (Test System: AMES SALMONELLA TYPHIMURIUM, Strain/Indicator: TA100, Metabolic Activation: RAT, LIVER, MICROSOMES, CHRYSENE, Method: STANDARD PLATE): inactive; negative
mutagenic call (Test System: AMES SALMONELLA TYPHIMURIUM, Strain/Indicator: TA100, Metabolic Activation: RAT, LIVER, MICROSOMES, Method: STANDARD PLATE): inactive; negative
mutagenic call [4]: active; positive
mutagenic call (Test System: AMES SALMONELLA TYPHIMURIUM, Strain/Indicator: TA100, Metabolic Activation: RAT, LIVER, S-9, PCB, Method: STANDARD PLATE): active; positive
mutagenic call (Test System: AMES SALMONELLA TYPHIMURIUM, Strain/Indicator: TA100, Metabolic Activation: RAT, LIVER, S-9, PHENOBARBITAL AND 5,6-BENZOFLAVONE, Method: PREINCUBATION): active; positive
mutagenic call (Test System: CHINESE HAMSTER OVARY, Strain/Indicator: CHO-K1-BH4 (HGPRT)/6-THIOGUANINE, Metabolic Activation: NONE, Method: STANDARD PLATE): inactive; negative
mutagenic call (Test System: CHINESE HAMSTER OVARY, Strain/Indicator: CHO-K1-BH4 (HGPRT)/6-THIOGUANINE, Metabolic Activation: RAT, LIVER, S-9, AROCLOR 1254, Method: STANDARD PLATE): active; positive
mutagenic call (Test System: CHINESE HAMSTER OVARY, Strain/Indicator: CHO-UV5 (HGPRT)/6-THIOGUANINE, Metabolic Activation: NONE, Method: STANDARD PLATE): inactive; negative
mutagenic call (Test System: CHINESE HAMSTER OVARY, Strain/Indicator: CHO-UV5 (HGPRT)/6-THIOGUANINE, Metabolic Activation: RAT, LIVER, S-9, AROCLOR 1254, Method: STANDARD PLATE): active; positive
mutagenic call (Test System: LACZ TRANSGENIC MOUSE (MUTATM MOUSE), Strain/Indicator: LACZ MUTANT FREQUENCY, Method: LIVER, SPLEEN, LUNG, KIDNEY, BONE MARROW, COLON HARVESTED 7 D AFTER LAST DOSE, DNA ISOLATED): active; positive; g:c to t:a transversions in all organs

c1cc[n+]2c(c1)-c1cccc[n+]1CC2
mutagenic call (Test System: AMES SALMONELLA TYPHIMURIUM, Strain/Indicator: TA102, Metabolic Activation: NONE, Method: STANDARD PLATE): inactive; negative
mutagenic call (Test System: AMES SALMONELLA TYPHIMURIUM, Strain/Indicator: TA2638, Metabolic Activation: NONE, Method: STANDARD PLATE): inactive; negative
mutagenic call (Test System: E. COLI, Strain/Indicator: WP2 (PKM101), Metabolic Activation: NONE, Method: STANDARD PLATE): inactive; negative
mutagenic call (Test System: E. COLI, Strain/Indicator: WP2 UVRA (PKM101), Metabolic Activation: NONE, Method: STANDARD PLATE): inactive; negative
